In patent US10040781B2, “Tank-binding kinase inhibitor compounds” (Gilead Sciences, Inc., priority 2014, dated 2018):
Like-named read-outs stand apart in the source and are kept apart here.

Columns and labels:
TBK1 = TBK1 (Homo sapiens (Human), UniProt Q9UHD2); assay: TBK1 TR-FRET enzymatic assay;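 further: phosphorylation of a biotinylated Ser/Thr peptide by purified full-length recombinant TBK1, read by TR-FRET after 240 min at 25 °C, IC50 is the geometric mean of at least four runs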
hJAK2 = hJAK2 (Homo sapiens (Human), UniProt O60674); assay: hJAK2 LANCE TR-FRET enzymatic assay; type: biochemical; details: read-out: JAK2 IC50
hJAK2, sequence (O60674 whole entry): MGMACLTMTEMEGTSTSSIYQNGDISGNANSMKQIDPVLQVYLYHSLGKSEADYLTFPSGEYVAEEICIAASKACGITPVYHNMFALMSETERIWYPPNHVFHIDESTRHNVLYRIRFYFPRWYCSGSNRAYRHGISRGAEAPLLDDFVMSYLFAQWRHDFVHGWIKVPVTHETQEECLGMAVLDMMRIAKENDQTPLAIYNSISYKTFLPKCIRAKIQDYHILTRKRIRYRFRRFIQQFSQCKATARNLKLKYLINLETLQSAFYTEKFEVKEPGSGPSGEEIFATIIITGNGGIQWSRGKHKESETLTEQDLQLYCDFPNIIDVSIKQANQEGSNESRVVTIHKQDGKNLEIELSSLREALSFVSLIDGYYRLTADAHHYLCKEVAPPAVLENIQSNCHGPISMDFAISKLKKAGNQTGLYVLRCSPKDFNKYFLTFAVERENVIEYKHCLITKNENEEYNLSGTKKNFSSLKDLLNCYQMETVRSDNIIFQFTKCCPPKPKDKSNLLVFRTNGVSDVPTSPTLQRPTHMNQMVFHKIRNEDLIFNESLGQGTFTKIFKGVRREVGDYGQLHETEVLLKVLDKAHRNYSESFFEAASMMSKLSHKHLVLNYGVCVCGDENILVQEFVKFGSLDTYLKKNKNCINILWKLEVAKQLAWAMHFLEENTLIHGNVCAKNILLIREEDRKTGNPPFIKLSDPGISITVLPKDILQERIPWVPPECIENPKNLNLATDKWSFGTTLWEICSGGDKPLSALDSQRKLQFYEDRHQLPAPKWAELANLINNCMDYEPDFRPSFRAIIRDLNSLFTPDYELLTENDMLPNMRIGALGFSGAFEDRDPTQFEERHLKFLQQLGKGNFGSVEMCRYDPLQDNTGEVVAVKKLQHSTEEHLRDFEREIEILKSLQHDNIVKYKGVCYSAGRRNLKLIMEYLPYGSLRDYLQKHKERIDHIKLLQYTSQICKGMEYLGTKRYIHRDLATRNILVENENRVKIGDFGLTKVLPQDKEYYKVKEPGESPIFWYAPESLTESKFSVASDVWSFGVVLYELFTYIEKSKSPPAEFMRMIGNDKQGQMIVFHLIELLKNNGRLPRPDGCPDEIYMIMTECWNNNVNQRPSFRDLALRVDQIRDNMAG

TBK1, sequence (Q9UHD2 whole entry): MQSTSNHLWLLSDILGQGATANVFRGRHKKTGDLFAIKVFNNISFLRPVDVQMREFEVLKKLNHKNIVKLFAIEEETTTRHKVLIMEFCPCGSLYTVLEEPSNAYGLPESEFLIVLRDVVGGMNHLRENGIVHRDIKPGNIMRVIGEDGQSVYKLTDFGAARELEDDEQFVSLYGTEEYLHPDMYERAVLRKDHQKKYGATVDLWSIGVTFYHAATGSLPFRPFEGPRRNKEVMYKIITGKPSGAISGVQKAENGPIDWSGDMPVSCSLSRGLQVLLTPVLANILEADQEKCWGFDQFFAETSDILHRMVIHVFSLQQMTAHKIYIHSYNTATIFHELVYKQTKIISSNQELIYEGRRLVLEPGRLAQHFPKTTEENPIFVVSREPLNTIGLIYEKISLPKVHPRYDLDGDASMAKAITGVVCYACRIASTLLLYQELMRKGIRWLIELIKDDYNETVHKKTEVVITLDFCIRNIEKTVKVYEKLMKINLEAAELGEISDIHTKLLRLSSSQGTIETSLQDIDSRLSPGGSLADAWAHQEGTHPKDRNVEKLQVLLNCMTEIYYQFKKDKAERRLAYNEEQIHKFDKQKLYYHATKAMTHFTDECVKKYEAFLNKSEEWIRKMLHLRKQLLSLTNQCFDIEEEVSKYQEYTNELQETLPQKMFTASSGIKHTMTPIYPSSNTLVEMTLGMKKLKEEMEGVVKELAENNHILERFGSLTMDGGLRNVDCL

Row | SMILES | IC50 (TBK1) [nM] | IC50 (hJAK2) [nM] | IC50 (TBK1; TBK1 IC50) [nM]
1 | N#Cc1cc(-c2ncnc(Nc3ccc(N4CCO[C@@H](CO)C4)cc3)n2)ccc1O[C@H]1CCN(C(=O)CO)C[C@H]1F [Example 229, 2-(((3R,4S)-3-fluoro-1-(2-hydroxyacetyl)piperidin-4-yl)oxy)-5-(4-((4-((R)-2-(hydroxymethyl)morpholino)phenyl)amino)-1,3,5-triazin-2-yl)benzonitrile] | 1 | 189 | 
2 | C[C@H](O)C(=O)N1CC[C@@H](Oc2ccc(-c3ncnc(Nc4ccc(N5CCN(C6COC6)[C@H](C)C5)cc4)n3)cc2C#N)C(F)(F)C1 [Example 245, 2-(((R)-3,3-difluoro-1-((S)-2-hydroxypropanoyl)piperidin-4-yl)oxy)-5-(4-((4-((R)-3-methyl-4-(oxetan-3-yl)piperazin-1-yl)phenyl)amino)-1,3,5-triazin-2-yl)benzonitrile] | 17 | 228 | 
3 | C[C@H]1CN(C2COC2)CCN1c1ccc(Nc2ncnc(-c3ccc(O[C@H]4CCN(C(=O)c5nnc[nH]5)CC4(F)F)c(C#N)c3)n2)cc1 [Example 260, 2-(((S)-3,3-difluoro-1-(4H-1,2,4-triazole-3-carbonyl)piperidin-4-yl)oxy)-5-(4-((4-((S)-2-methyl-4-(oxetan-3-yl)piperazin-1-yl)phenyl)amino)-1,3,5-triazin-2-yl)benzonitrile] | 2 | 42 | 
4 | C[C@H]1CN(c2ccc(Nc3ncnc(-c4ccc(O[C@H]5CCN(C(=O)CO)CC5(F)F)c(C#N)c4)n3)cc2)CCN1C1COC1 [Example 261, 2-(((S)-3,3-difluoro-1-(2-hydroxyacetyl)piperidin-4-yl)oxy)-5-(4-((4-((S)-3-methyl-4-(oxetan-3-yl)piperazin-1-yl)phenyl)amino)-1,3,5-triazin-2-yl)benzonitrile] | 1 | 46 | 
5 | CC(=O)N1CC[C@H](Oc2ccc(-c3ncnc(Nc4ccc(C5CCNCC5)cc4)n3)cc2C#N)C(F)(F)C1 [Example 301, (S)-2-((1-acetyl-3,3-difluoropiperidin-4-yl)oxy)-5-(4-((4-(piperidin-4-yl)phenyl)amino)-1,3,5-triazin-2-yl)benzonitrile] | 3 | 308 | 
6 | CC(=O)N1CC[C@H](Oc2ccc(-c3ncnc(Nc4ccc(C5CCN(C)CC5)cc4)n3)cc2C#N)C(F)(F)C1 [Example 302, (S)-2-((1-acetyl-3,3-difluoropiperidin-4-yl)oxy)-5-(4-((4-(1-methylpiperidin-4-yl)phenyl)amino)-1,3,5-triazin-2-yl)benzonitrile] | 2 | 174 | 
7 | Cc1cc(Nc2ncnc(-c3ccc(O[C@H]4CCN(C=O)CC4(F)F)c(C#N)c3)n2)ccc1C1CCNCC1 [Example 303, (S)-2-((3,3-difluoro-1-formylpiperidin-4-yl)oxy)-5-(4-((3-methyl-4-(piperidin-4-yl)phenyl)amino)-1,3,5-triazin-2-yl)benzonitrile] | 1 | 290 | 
8 | Cc1cc(Nc2ncnc(-c3ccc(O[C@H]4CCN(C=O)CC4(F)F)c(C#N)c3)n2)ccc1C1CCN(C)CC1 [Example 304, (S)-2-((3,3-difluoro-1-formylpiperidin-4-yl)oxy)-5-(4-((3-methyl-4-(1-methylpiperidin-4-yl)phenyl)amino)-1,3,5-triazin-2-yl)benzonitrile] | 2 | ≥ 1000 | 
9 | N#Cc1cc(-c2ncnc(Nc3ccc(C4CCN(C5COC5)CC4)cc3)n2)ccc1O[C@H]1CCN(C(=O)CO)C[C@H]1F [Example 305, 2-(((3R,4S)-3-fluoro-1-(2-hydroxyacetyl)piperidin-4-yl)oxy)-5-(4-((4-(1-(oxetan-3-yl)piperidin-4-yl)phenyl)amino)-1,3,5-triazin-2-yl)benzonitrile] | 2 | 292 | 
10 | N#Cc1cc(-c2ncnc(Nc3ccc(C4CCN(C5COC5)CC4)cc3)n2)ccc1O[C@H]1CCN(C(=O)c2ccn[nH]2)C[C@H]1F [Example 318, 2-(((3R,4S)-3-fluoro-1-(1H-pyrazole-5-carbonyl)piperidin-4-yl)oxy)-5-(4-((4-(1-(oxetan-3-yl)piperidin-4-yl)phenyl)amino)-1,3,5-triazin-2-yl)benzonitrile] | 2 | ≥ 1000 | 
11 | COc1cc(Nc2ncnc(-c3ccc(O[C@H]4CCN(C(=O)CO)C[C@H]4F)c(C#N)c3)n2)ccc1N1CCC(N2CCOCC2)CC1 [Example 325, 2-(((3R,4S)-3-fluoro-1-(2-hydroxyacetyl)piperidin-4-yl)oxy)-5-(4-((3-methoxy-4-(4-morpholinopiperidin-1-yl)phenyl)amino)-1,3,5-triazin-2-yl)benzonitrile] | 2 | 28 | 
12 | C[C@H](O)C(=O)N1CC[C@H](Oc2ccc(-c3ncnc(Nc4ccc(N5C6COCC5C6)cc4)n3)cc2C#N)[C@H](F)C1 [Example 366, 5-(4-((4-(3-oxa-6-azabicyclo[3.1.1]heptan-6-yl)phenyl)amino)-1,3,5-triazin-2-yl)-2-(((3R,4S)-3-fluoro-1-((S)-2-hydroxypropanoyl)piperidin-4-yl)oxy)benzonitrile] |  | 531 | 3
13 | N#CCC(=O)N1CC[C@H](Oc2ccc(-c3ncnc(Nc4ccc(N5CCN(C6COC6)CC5)c(F)c4)n3)cc2C#N)[C@H](F)C1 [Example 404, 2-(((3R,4S)-1-(2-cyanoacetyl)-3-fluoropiperidin-4-yl)oxy)-5-(4-((3-fluoro-4-(4-(oxetan-3-yl)piperazin-1-yl)phenyl)amino)-1,3,5-triazin-2-yl)benzonitrile] | 3 | 457 | 
14 | Cc1nnc(C(=O)N2CC[C@H](Oc3ccc(-c4ncnc(Nc5ccc(C6CCN(C)CC6)c(C)c5)n4)cc3C#N)[C@H](F)C2)[nH]1 [Example 490, 2-(((3R,4S)-3-fluoro-1-(5-methyl-4H-1,2,4-triazole-3-carbonyl)piperidin-4-yl)oxy)-5-(4-((3-methyl-4-(1-methylpiperidin-4-yl)phenyl)amino)-1,3,5-triazin-2-yl)benzonitrile] | 3 | 78 | 
15 | C[C@H](O)C(=O)N1CC[C@H](Oc2ccc(-c3ncnc(Nc4ccc(N5CCNCC5)cc4)n3)cc2C#N)[C@H](F)C1 [Example 497, 2-(((3R,4S)-3-fluoro-1-((S)-2-hydroxypropanoyl)piperidin-4-yl)oxy)-5-(4-((4-(piperazin-1-yl)phenyl)amino)-1,3,5-triazin-2-yl)benzonitrile] | 1 | 358 | 
16 | C[C@H](O)C(=O)N1CC[C@H](Oc2ccc(-c3ncnc(Nc4ccc(N5CCN(C)CC5)cc4)n3)cc2C#N)[C@H](F)C1 [Example 498, 2-(((3R,4S)-3-fluoro-1-((S)-2-hydroxypropanoyl)piperidin-4-yl)oxy)-5-(4-((4-(4-methylpiperazin-1-yl)phenyl)amino)-1,3,5-triazin-2-yl)benzonitrile] | 2 | 389 | 
17 | C[C@H]1CN(C)CCN1c1ccc(Nc2ncnc(-c3ccc(O[C@H]4CCN(C(=O)CO)C[C@H]4F)c(C#N)c3)n2)cc1 [Example 500, 5-(4-((4-((S)-2,4-dimethylpiperazin-1-yl)phenyl)amino)-1,3,5-triazin-2-yl)-2-(((3R,4S)-3-fluoro-1-(2-hydroxyacetyl)piperidin-4-yl)oxy)benzonitrile] | 2 | 182 | 
18 | C[C@H](O)C(=O)N1CC[C@H](Oc2ccc(-c3ncnc(Nc4ccc(N5CCN(C)C[C@@H]5C)cc4)n3)cc2C#N)[C@H](F)C1 [Example 501, 5-(4-((4-((S)-2,4-dimethylpiperazin-1-yl)phenyl)amino)-1,3,5-triazin-2-yl)-2-(((3R,4S)-3-fluoro-1-((S)-2-hydroxypropanoyl)piperidin-4-yl)oxy)benzonitrile] | 2 | 457 | 
19 | COc1cc(Nc2ncnc(-c3ccc(O[C@H]4CCN(C(=O)CO)C[C@H]4F)c(C#N)c3)n2)ccc1N1CCN(C)C[C@@H]1C [Example 508, 5-(4-((4-((S)-2,4-dimethylpiperazin-1-yl)-3-methoxyphenyl)amino)-1,3,5-triazin-2-yl)-2-(((3R,4S)-3-fluoro-1-(2-hydroxyacetyl)piperidin-4-yl)oxy)benzonitrile] | 2 | 49 | 
20 | C[C@H]1CN(C)CCN1c1ccc(Nc2ncnc(-c3ccc(O[C@H]4CCN(C(=O)[C@@H](O)CO)C[C@H]4F)c(C#N)c3)n2)cc1 [Example 515, 2-(((3R,4S)-1-((S)-2,3-dihydroxypropanoyl)-3-fluoropiperidin-4-yl)oxy)-5-(4-((4-((S)-2,4-dimethylpiperazin-1-yl)phenyl)amino)-1,3,5-triazin-2-yl)benzonitrile] | 2 | 355 | 
21 | C[C@H]1OC(=O)N[C@@H]1C(=O)N1CC[C@H](Oc2ccc(-c3ncnc(Nc4ccc(N5CCN(C6COC6)CC5)cc4)n3)cc2C#N)[C@H](F)C1 [Example 523, 2-(((3R,4S)-3-fluoro-1-((4S,5R)-5-methyl-2-oxooxazolidine-4-carbonyl)piperidin-4-yl)oxy)-5-(4-((4-(4-(oxetan-3-yl)piperazin-1-yl)phenyl)amino)-1,3,5-triazin-2-yl)benzonitrile] | 10 | 811 | 
22 | COCCNc1ccc(Nc2ncnc(-c3ccc(O[C@H]4CCN(C(=O)[C@H](C)O)C[C@H]4F)c(C#N)c3)n2)cn1 [Example 543, 2-(((3R,4S)-3-fluoro-1-((S)-2-hydroxypropanoyl)piperidin-4-yl)oxy)-5-(4-((6-((2-methoxyethyl)amino)pyridin-3-yl)amino)-1,3,5-triazin-2-yl)benzonitrile] | 12 | ≥ 1000 | 
23 | N#Cc1cc(-c2ncnc(Nc3ccc(N4CCN(C5COC5)CC4)cc3)n2)ccc1OCCCN1CCCC1=O [Example 600, 5-(4-((4-(4-(oxetan-3-yl)piperazin-1-yl)phenyl)amino)-1,3,5-triazin-2-yl)-2-(3-(2-oxopyrrolidin-1-yl)propoxy)benzonitrile] | 517 | ≥ 1000 | 
24 | CN1CCN(C(=O)N(C)CCOc2ccc(-c3ncnc(Nc4ccc(N5CCN(C6COC6)CC5)cc4)n3)cc2C#N)CC1 [Example 603, N-(2-(2-cyano-4-(4-((4-(4-(oxetan-3-yl)piperazin-1-yl)phenyl)amino)-1,3,5-triazin-2-yl)phenoxy)ethyl)-N,4-dimethylpiperazine-1-carboxamide] | 466 | ≥ 1000 | 
